Data reported in patent US20220213061A9, “HETEROCYCLIC COMPOUNDS FOR MODULATING NR2F6” (TES Pharma S.r.l., priority 2020, published 2022).
Structures can show the parent of a compound that is named as a salt.

Target: T1, recombinant human NR2F6 protein (Homo sapiens, UniProt P10588)
T1 sequence (P10588 1-404): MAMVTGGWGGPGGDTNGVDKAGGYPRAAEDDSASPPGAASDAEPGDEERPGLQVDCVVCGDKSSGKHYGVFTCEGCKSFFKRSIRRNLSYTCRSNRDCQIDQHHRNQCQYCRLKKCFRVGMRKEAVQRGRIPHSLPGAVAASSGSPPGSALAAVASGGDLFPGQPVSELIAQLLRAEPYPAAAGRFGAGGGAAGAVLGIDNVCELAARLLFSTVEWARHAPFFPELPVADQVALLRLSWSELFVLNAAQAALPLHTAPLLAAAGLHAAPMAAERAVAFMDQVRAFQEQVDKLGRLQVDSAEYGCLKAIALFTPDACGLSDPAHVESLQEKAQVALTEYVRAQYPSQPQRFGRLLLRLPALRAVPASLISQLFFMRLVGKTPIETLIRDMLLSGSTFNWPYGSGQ
Experiment: Biochemical NR2F6 binding assay (EnSpire label-free)
Details: label-free binding to immobilized purified recombinant human NR2F6; ligands 1 nM to 100 uM, 1% DMSO
Procedure: Purified recombinant human NR2F6 protein was dissolved in immobilization buffer at pH 4.5 and then immobilized in EnSpire-LFB High-Sensitivity User-Activated Plates at the concentration of 50 μg/well plate and left in incubation for 16 h at 4° C. Wells with only immobilization buffer were used as negative control to check the protein coating efficiency. NR2F6 ligands were resuspended in DMSO at the concentration of 10 mM, then dispensed into a plate containing assay buffer at concentrations ranging from 1 nM to 100 uM using an HP-dispenser. DMSO was normalized at the 1% of volume of each well. The final readings were taken over a period of 30 minutes. The label-free responses were measured as shifts in reflected wavelength and are expressed in picometers (pm). Results were analyzed using the EnSpire label-free user interface software, and EC50 and graphs were generated using GraphPad PRISM software. In the tables below, A is <1 μM; B is 1 to 10 μM; C is 10 to 50 μM; and D is >50 μM.

| EC50 | Compound |
| --- | --- |
| > 50 µM | O=C(Nc1cccc2c1OCCO2)[C@H]1CNC[C@@H]1c1ccccc1 (racemic) [Compound I-65, (±)-trans-N-(2,3-Dihydro-1,4-benzodioxin-5-yl)-4-phenylpyrrolidine-3-carboxamide hydrochloride] |
| 1 to 10 µM | Cc1nccc2c(NC(=O)[C@H]3CNC[C@@H]3c3ccc(C(F)(F)F)cc3)cccc12 [Compound I-96, (3R,4S)—N-(1-Methylisoquinolin-5-yl)-4-[4-(trifluoromethyl)phenyl]pyrrolidine-3-carboxamide dihydrochloride] |
| < 1 µM | O=C(Nc1cccc(-c2ccccc2)c1)[C@@H]1CNC[C@H]1c1cccs1 (racemic) [Compound I-22, (±)-trans-N-(Biphenyl-3-yl)-4-(thiophen-2-yl)pyrrolidine-3-carboxamide hydrochloride] |
| 1 to 10 µM | O=C(Nc1cccc(OC2CCOCC2)c1)[C@@H]1CNC[C@H]1c1ccccc1 (racemic) [Compound I-86, (±)-trans-N-[3-(Tetrahydro-2H-pyran-4-yloxy)phenyl]-4-phenylpyrrolidine-3-carboxamide hydrochloride] |
| < 1 µM | N#Cc1ccc(Oc2cccc(NC(=O)[C@H]3CNC[C@@H]3c3ccccc3)c2)cc1 [Compound I-111, (3R,4S)—N-[3-(4-Cyanophenoxy)phenyl]-4-phenylpyrrolidine-3-carboxamide hydrochloride] |
| 1 to 10 µM | O=C(NCc1ccncc1)[C@H]1CNC[C@@H]1c1ccccc1 [Compound I-31, (3R,4S)-4-Phenyl-N-(pyridin-4-ylmethyl)pyrrolidine-3-carboxamide dihydrochloride] |
| < 1 µM | O=C(Nc1cccc2cnccc12)[C@H]1CNC[C@@H]1c1ccccc1 [Compound I-29, (3R,4S)—N-(Isoquinolin-5-yl)-4-phenylpyrrolidine-3-carboxamide] |
| 1 to 10 µM | O=C(Nc1cccc(Oc2ccc(C(F)(F)F)nc2)c1)[C@@H]1CNC[C@H]1c1ccccc1 [Compound I-120, (3S,4R)-4-Phenyl-N-(3-{[6-(trifluoromethyl)pyridin-3-yl]oxy}phenyl) pyrrolidine-3-carboxamide dihydrochloride] |
| > 50 µM | O=C(Nc1cccc2cnccc12)[C@H]1CNC[C@@H]1c1ccc(C(F)(F)F)cc1 [Compound I-82, (3R,4S)-4-(4-Trifluorophenyl)-N-(isoquinolin-5-yl)pyrrolidine-3-carboxamide dihydrochloride] |
| < 1 µM | O=C(Nc1ccc(-c2ccc(C(F)(F)F)nc2)cc1)[C@@H]1CNC[C@H]1c1ccccc1 [Compound I-103, (3S,4R)-4-Phenyl-N-[4-[6-(trifluoromethyl)pyridin-3-yl]phenyl]pyrrolidine-3-carboxamide hydrochloride] |
| > 50 µM | O=C(NCc1cccc2cnccc12)[C@H]1CNC[C@@H]1c1ccccc1 [Compound I-67, (3R,4S)—N-(Isoquinolin-5-ylmethyl)-4-phenylpyrrolidine-3-carboxamide dihydrochloride] |
| 1 to 10 µM | c1ccc([C@@H]2CNC[C@H]2Oc2nc(-c3cccnc3)cs2)cc1 (racemic) [Compound I-5, (±)-trans-3-{2-[(4-Phenylpyrrolidin-3-yl)oxy]-1,3-thiazol-4-yl}pyridine] |
| 1 to 10 µM | O=C(Nc1cccc2cnccc12)O[C@@H]1CNC[C@H]1c1ccccc1 (racemic) [Compound I-4, (±)-trans-4-Phenylpyrrolidin-3-yl isoquinolin-5-ylcarbamate] |
| < 1 µM | O=C(Nc1cccc(Nc2ccccc2)c1)[C@H]1CNC[C@@H]1c1ccccc1 (racemic) [Compound I-89, (±)-trans-4-Phenyl-N-[3-(phenylamino)phenyl]pyrrolidine-3-carboxamide hydrochloride] |
| > 50 µM | O=C(Nc1cccc(-c2cncnc2)c1)[C@@H]1CNC[C@H]1c1ccccc1 (racemic) [Compound I-53, (±)-trans-4-Phenyl-N-[3-(pyrimidin-5-yl)phenyl]pyrrolidine-3-carboxamide trihydrochloride] |
| > 50 µM | Cn1ccc2c(NC(=O)[C@H]3CNC[C@@H]3c3ccccc3)cccc2c1=O [Compound I-84, (3R,4S)—N-(2-Methyl-1-oxo-1,2-dihydroisoquinolin-5-yl)-4-phenylpyrrolidine-3-carboxamide hydrochloride] |
| > 50 µM | CC(=O)N1C[C@@H](C(=O)Nc2cccc(-c3cccnc3)c2)[C@H](c2ccccc2)C1 (racemic) [Compound I-55, (±)-trans-1-Acetyl-4-phenyl-N-[3-(pyridin-3-yl)phenyl]pyrrolidine-3-carboxamide] |
| < 1 µM | O=C(NC1CN(c2ccc(F)cc2)C1)[C@@H]1CNC[C@H]1c1ccccc1 [Compound I-118, (3S,4R)-4-Phenyl-N-(1-4-fluorophenylazetidin-3-yl)pyrrolidine-3-carboxamide hydrochloride] |
| > 50 µM | O=C(Nc1ccc(Oc2cccnc2)cc1)[C@H]1CNC[C@@H]1c1ccccc1 (racemic) [Compound I-70, (±)-trans-4-Phenyl-N-[4-(pyridin-3-yloxy)phenyl]pyrrolidine-3-carboxamide dihydrochloride] |
| > 50 µM | O=C(Nc1cccc(-c2cccnc2)c1)[C@@H]1CNC[C@H]1c1cccs1 (racemic) [Compound I-49, (±)-trans-N-[3-(Pyridin-3-yl)phenyl]-4-(thiophen-2-yl)pyrrolidine-3-carboxamide dihydrochloride] |
| > 50 µM | O=C(Nc1cccc2cnccc12)[C@@H]1CNC[C@H]1c1ccccc1 [Compound I-40, (3S,4R)—N-(Isoquinolin-5-yl)-4-phenylpyrrolidine-3-carboxamide dihydrochloride] |
| 1 to 10 µM | O=C(Nc1ccc(-c2ccccc2)cc1)[C@@H]1CNC[C@H]1c1ccccc1 (racemic) [Compound I-24, (±)-trans-N-(Biphenyl-4-yl)-4-phenylpyrrolidine-3-carboxamide hydrochloride] |
| > 50 µM | O=C([C@@H]1CNC[C@H]1c1ccccc1)N1CC(c2cccnc2)C1 (racemic) [Compound I-48, (±)-trans-(4-Phenylpyrrolidin-3-yl)[3-(pyridin-3-yl)azetidin-1-yl]methanone dihydrochloride] |
| < 1 µM | O=C(Nc1cccc(Oc2ccccc2)c1)[C@H]1CNC[C@@H]1c1ccccc1 (racemic) [Compound I-69, (±)-trans-N-(3-Phenoxyphenyl)-4-phenylpyrrolidine-3-carboxamide hydrochloride] |
| > 50 µM | O=C(Nc1cccc2cnccc12)[C@@H]1CNC[C@H]1c1nccs1 [Compound I-59, (3S,4S)—N-(Isoquinolin-5-yl)-4-(1,3-thiazol-2-yl)pyrrolidine-3-carboxamide dihydrochloride] |
| 1 to 10 µM | O=C(Nc1cccc(Oc2ccc(C(F)(F)F)cc2)c1)[C@H]1CNC[C@@H]1c1ccccc1 (racemic) [Compound I-92, (±)-trans-4-Phenyl-N-{3-[4-(trifluoromethyl)phenoxy]phenyl}pyrrolidine-3-carboxamide hydrochloride] |
| 1 to 10 µM | O=C(NCc1cccc2cnccc12)[C@@H]1CNC[C@H]1c1ccccc1 [Compound I-95, (3S,4R)—N-(Isoquinolin-5-ylmethyl)-4-phenylpyrrolidine-3-carboxamide dihydrochloride] |
| > 50 µM | O=C(Nc1cccc(-c2cccnc2)c1)[C@H]1CNC[C@@H]1Cc1ccccc1 (racemic) [Compound I-72, (±)-trans 4-Benzyl-N-[3-(pyridin-3-yl)phenyl]pyrrolidine-3-carboxamide dihydrochloride] |
| 1 to 10 µM | O=C(Nc1cccc2ccccc12)[C@@H]1CNC[C@H]1c1ccccc1 [Compound I-75, (3S,4R)—N-(Naphthalen-1-yl)-4-phenylpyrrolidine-3-carboxamide hydrochloride] |
| 1 to 10 µM | Cc1ccc(O[C@H]2C[C@H](NC(=O)[C@H]3CNC[C@@H]3c3ccccc3)C2)cn1 (racemic) [Compound I-102, (±)-trans-N-{trans-3-[(6-Methylpyridin-3-yl)oxy]cyclobutyl}-4-phenylpyrrolidine-3-carboxamide dihydrochloride] |

| Compound | EC50 |
| --- | --- |
| O=C(Nc1cccc2cnccc12)[C@H]1CNC[C@@H]1c1ccc(F)cc1 [Compound I-81, (3R,4S)-4-(4-Fluorophenyl)-N-(isoquinolin-5-yl)pyrrolidine-3-carboxamide dihydrochloride] | > 50 µM |
| O=C(c1cccc2cnccc12)[C@H]1CNC[C@@H]1c1ccccc1 (racemic) [Compound I-100, (±)-trans Isoquinolin-5-yl[(3S,4R)-4-phenylpyrrolidin-3-yl]methanone dihydrochloride] | 1 to 10 µM |
| O=C(Nc1cccc(-c2ccccc2)c1)[C@@H]1CNC[C@H]1c1ccc(F)cc1 (racemic) [Compound I-23, (±)-trans-N-(Biphenyl-3-yl)-4-(4-fluorophenyl)pyrrolidine-3-carboxamide hydrochloride] | 1 to 10 µM |
